PubChem BioAssay (NCI)
“And” between values parts separate entries of the source, which are not always exact repeats. Equal entries are not always repeated.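 Values below derive from 48-hour exposures of cells grown in 96-well plates, with endpoints linearly interpolated between the two concentrations bracketing the appropriate inhibition level. At the GI50, growth is halved. The concentration for full growth arrest is given as TGI.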

Tested on: MDA-MB-468 breast
Assay: growth of human tumour cells (NCI), 48 h

Row | Structure (SMILES) | GI50 | TGI [µM]
1 | COc1cc2c3c(n(CCCNC4CCC4)c(=O)c2cc1OC)-c1cc2c(cc1C3=O)OCO2 | 1.41 µM | 3.22
2 | C=C1C(=O)O[C@H]2[C@H]1CC/C(COC(=O)/C=C/C(=O)NCc1ccc(Cn3c(=O)sn(-c4ccccc4)c3=O)cc1)=C\CC[C@@]1(C)O[C@@H]21 | 1.35 µM | 3.69
3 | CCN(CC)Cc1cc(Nc2c3ccc(Cl)cc3nc3ccc(OC)cc23)ccc1O | 1.71 µM | 3.67
4 | Nc1nc(N)c(N=Nc2ccccc2)c(-c2ccccc2)n1 | 1.06 µM | 11.4
5 | N#Cc1c(-c2ccccc2)cc(-c2ccccc2)n(CCCC(=O)NO)c1=O | 1.46 µM | 4.56
6 | COc1cc(-c2ccc(-c3ccc(C(=N)N)cc3)s2)cc(OC)c1OC | 1.64 µM | 3.15
7 | O=C(Nc1nc(-c2ccc(Cl)cc2)cs1)c1cc(-c2ccc(Br)cc2)nc2ccc(Cl)cc12 | 10.9 µM | 78.3
8 | COc1ccc(CC(C)=C(c2ccc(OCCN3CCCCCC3)cc2)c2ccc(OCCN3CCCCCC3)cc2)cc1 | 0.176 µM | 0.667
9 | CNC(=O)NCC1OC(n2cnc3c(NC(=O)Nc4ccccc4)ncnc32)C(O[Si](C)(C)C(C)(C)C)C1CC(=O)N(C)OC (stereo not drawn) | 1.87 µM | 6.38
10 | COC(=O)[C@@H](C)C[C@H](Cc1ccc2ccccc2c1)NC(=O)c1csc([C@@H](C[C@H](C(C)C)N(C)C(=O)[C@@H](NC(=O)[C@H]2CCCCN2C)C(C)C)OC(C)=O)n1 | 0.00683 µM | > 25
11 | O=C(Nc1ccc(Br)cc1)Nc1nc2ccc([N+](=O)[O-])cc2s1 | 1.67 µM | 3.29
12 | C[C@@]1(C(=O)Nc2ccc(F)nc2)CCCN1c1nc(Nc2cc(C3CC3)[nH]n2)c2cccn2n1 | 0.25 µM and 0.526 µM | 4.37
13 | COc1cc2c(cc1OCCCCCn1c(-c3ccc(OCc4ccccc4)cc3)nc3cc(N4CCOCC4)ccc31)N=C[C@@H]1CCCN1C2=O | 0.936 µM | 5.1
14 | c1ccc([P+](c2ccccc2)(c2ccccc2)c2ccc3c4ccc([P+](c5ccccc5)(c5ccccc5)c5ccccc5)c5cccc(c6cccc2c63)c54)cc1 | 0.838 µM | 7.46
15 | Clc1ccc2c(c1)C(Br)c1cc(Cl)cc(Cl)c1-2 (stereo not drawn) | 35.6 µM | > 100
16 | COc1ccc(-c2cc(-c3ccccc3)nc(SCCCC(=O)NO)n2)cc1OC | 1.44 µM | 3.62
17 | O=C1[C@@H]2Cc3c([nH]c4ccccc34)[C@H](c3c(Cl)cccc3Cl)N2C(=O)CN1C1CCN(Cc2ccccc2)CC1 | 2.09 µM | 4.27
18 | CCn1c(=O)c(Oc2ccc(F)cc2F)cc2cnc(NC3CCOCC3)nc21 | > 25 µM | > 25
19 | C[n+]1c(-c2ccccc2)c2cc(N)ccc2c2ccccc21 | 0.224 µM | 1.53
20 | CC1(C)C(N(O)C(=O)Nc2ccc(Cl)cc2)N(c2ccc(Cl)cc2)C(=O)N1CC(=O)N/N=C/C=C/c1ccc([N+](=O)[O-])o1 (stereo not drawn) | 1.62 µM | 5.35

Row | Structure (SMILES) | GI50 | TGI [µM]
21 | CC(=O)/C=C/c1ccc(OCc2ccc(C(C)(C)C)cc2)cc1 | 33.9 µM | > 1000
22 | CC(C)=CCC/C(C)=C/CC/C(C)=C/CC/C(C)=C/CSC[C@H](NC(=O)CCCCCN1CCN(C)CC1)C(=O)NC1CCCCC1 | 1.97 µM | 4.49
23 | COc1cc(/C=C/c2cc(/C=C/c3ccc(O)c(OC)c3)n(-c3c(Cl)cccc3Cl)c(=O)n2)ccc1O | 2.76 µM | 7.18
24 | C#C[C@]1(O)CC[C@H]2[C@@H]3CC=C4c5sc(Nc6nc(C)cc(OC)n6)nc5CC[C@]4(C)[C@H]3CC[C@@]21C | 4.47 µM | > 100
25 | COc1cc2ccnc(C=O)c2cc1OC | 31.9 µM | > 100
26 | Cn1ncc(NC(=O)c2nc(-c3c(F)cccc3F)sc2N)c1N1CC[C@@H](N)[C@H](F)CC1 | 9.7 µM | 26.8
27 | O=C(NNc1nc2cc(F)c(F)cc2n2cccc12)c1ccncn1 | 0.241 µM | 1.58
28 | CCO/C=N/C1=C(C#N)C(c2ccc(OC)cc2)c2sc3c(F)cccc3c2O1 (stereo not drawn) | 2.41 µM | 19.4
29 | CCNC(=O)N1CCc2cc(OC)c(OCCc3ccc(OC)c(N)c3)cc2C1c1ccc(C)cc1C (stereo not drawn) | 0.301 µM | 15.8
30 | O=c1c2cc(F)ccc2sc2c(Nc3ccncc3)nc3ccccc3c12 | 1.78 µM | 3.5
31 | CCOC(=O)N1C/C(=C/c2ccc(Cl)cc2)C(=O)/C(=C/c2ccc(Cl)cc2)C1 | 1.96 µM | 5
32 | c1ccc2cc(C[n+]3ccn(CCCCCCCCCCCCn4cc[n+](Cc5ccc6ccccc6c5)c4)c3)ccc2c1 | 0.494 µM | 1.28
33 | Nc1nonc1C(=Nc1ccc(F)c(Cl)c1)NO | 29.8 µM | > 100
34 | CC1(C)CN(c2cc(C(F)(F)F)cc3cncn23)CCC12NC(=O)NC2=O (stereo not drawn) | 22.5 µM | 82.9
35 | CCNCc1c(-c2cccc(OC(F)(F)F)c2)[nH]c2ccc(N3CCCC3)cc2c1=O | 2.22 µM | 5.74
36 | COc1cc2c(cc1I)-c1c(cc(OC)c(OC)c1OC)CC[C@@H]2NC(C)=O | 0.244 µM | 0.738
37 | COc1ccc(/C=C/C(=O)c2cc3c(N)c(C(=O)Nc4cccc(Cl)c4C)sc3nc2C)cc1 | 0.176 µM | 2.45
38 | C#CCn1cnc2cnc(Nc3cccc(NC(=O)CCl)c3)nc21 | 8.13 µM | 22.8
39 | O=C(c1ccc(Cl)cc1)c1no[n+]([O-])c1C(=O)c1ccc(Cl)cc1 | 9.22 µM | 27.7
